Laboratory results from US8686113B2 (priority 2009, dated 2014).
≈ marks a conversion by molar mass, not a printed value. Where two headings read alike, the source gives them in different places. Non-standard residues stand in square brackets, D forms with d. Residues, ends and D or L forms follow the SMILES beside them. Hyp = O=C(O)[C@@H]1C[C@@H](O)CN1; Tle = CC(C)(C)[C@H](N)C(=O)O; Orn = NCCC[C@H](N)C(=O)O

Columns and labels:
[1] = test system: bacterial proteases (E. coli BL21 A1 lysate); assay: Stability against bacterial proteases in E. coli lysate; assay type: in vitro ADME; details: E. coli lysate with 0.5 mg/mL protein concentration, 37° C.
Protocol: (§1) For the bacterial lysate, 500 mL of nutrient broth (Carl Roth GmbH+Co. KG, Karlsruhe) was inoculated with E. coli BL21 A1 and incubated overnight at 37° C. 2×250 mL bacterial suspension were centrifuged for 25 min at 5000 rpm and 4° C. in a Beckman Avanti™ J-20-XP centrifuge with JLA-10.500 rotor (Beckman Coulter, Fullerton, U.S.A.). The pellets were each suspended in 30 mL PBS (pH 7.4) and centrifuged again in a Beckman Allegra™ 2IR centrifuge (Beckman Coulter, Fullerton, U.S.A.). The pellets were each suspended in 10 mL PBS and were disrupted with ultrasound (Vibra-cell™ microtip, Fisher Bioblock Scientific, Illkirch, France) 2×5 min (750 W; amplitude 40%; 2 s on/3 s off) on ice. The bacterial lysates were combined and 1 mL aliquots were centrifuged at 15400 rpm for 20 min at 4° C. (Beckman Allegra™). The supernatants were removed and stored at −20° C. The protein content of the bacterial lysate was determined by protein determination according to Bradford.
(§2) A solution of 0.15 μg/mL peptide in bacterial lysate with protein content of 1.5 mg/mL or 0.5 mg/mL was incubated at 37° C. After 0, 30, 60, 120, 240 or 360 min, 200 μL was taken from each and the proteins were precipitated with 50 μL of 15% trichloroacetic acid. Then it was incubated for 10 min at 4° C. and then centrifuged for 5 min at 13000 rpm in a Minispin desktop centrifuge. 210 μL was taken from the supernatant and neutralized with 1 mol/L sodium hydroxide solution. The intact peptide and the degradation products were analyzed by HPLC. 60 μL of 3% aqueous acetonitrile with 0.1% trifluoroacetic acid (TFA) was added to the solution and 250 μL of the mixture was injected. After chromatographic separation, the constituents were identified by MALDI-TOF-MS,
(§3) In order to investigate the stability against bacterial proteases, a lysate was prepared from an overnight culture of E. coli BL21 A1 and the peptides were incubated in it. Using Bradford protein determination, the protein concentration was adjusted to 0.5 or 1.5 mg/mL.

[2] = test system: Escherichia coli DSM 10233
[3] = test system: Klebsiella pneumoniae DSM 681
[4] = test system: Pseudomonas aeruginosa DSM 3227
[5] = mouse, serum
Protocol: For this, the peptides and peptidomimetics were dissolved in water, mouse serum was added and the peptide concentration was adjusted to 75 μg/mL. While shaking continuously, the mixture was incubated at 37° C. After 0, 30, 60, 120, 240 and 360 minutes, in each case an aliquot was taken and mixed with 15% aqueous trichloroacetic acid (Carl Roth GmbH & Co. KG; Karlsruhe, Germany). After incubation on ice for a further 10 minutes, the precipitated serum proteins were centrifuged off (5 min, 13400 rpm, MiniSpin, Eppendorf AG, Hamburg, Germany). The supernatant was removed, neutralized with 1 mol/L aqueous sodium hydroxide solution (Fluke Chemie GmbH, Buchs, Switzerland) and stored at −20° C. until analysis.
The supernatants were analyzed by RP-HPLC with a linear acetonitrile gradient (Biosolve BV, Valkenswaard, The Netherlands) in the presence of 0.1% trifluoroacetic acid (TFA, UV-grade, Fluka Chemie GmbH, Buchs, Switzerland) as ion-pairing reagent. The fractions were co-crystallized with α-cyanohydroxycinnamic acid (Bruker Daltonik GmbH; Bremen, Germany) as matrix (5.3 mg/mL in 50% acetonitrile in 0.1% aqueous TFA) and were analyzed with a tandem mass spectrometer (MALDI-TOF/TOF-MS, 4700 Proteomics Analyzer; Applied Biosystems GmbH, Weiterstadt, Germany) in the positive-ion reflector mode. The proportion of intact peptides and their degradation products or metabolites could thus be identified and quantified at the individual time points. The control used was 25% aqueous mouse serum, which was analyzed in parallel for the same time intervals.

[6] = 25% aqueous mouse serum, 37° C., 75 μg/mL peptide
E. coli BL21 A1 = assay type: cell-based, Escherichia coli; details: BL21, 20 h
How it was run: (§4)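 Broth microdilution in 1% TSB with twofold peptide series, final 128 μg/mL to 62.5 ng/mL, against 5×10^6 bacteria/mL stock suspension added 1:1. Incubated 20 h at 37 °C, growth read by absorbance at 595 nm; MIC is the lowest concentration with no growth, determined in triplicate.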

M. luteus 10240 = assay: Growth inhibition assay (microdilution MIC); assay type: cell-based, Micrococcus luteus; details: 10240, 20 h
How it was run: as §4

[7] = Stability against bacterial proteases in E. coli lysate; assay type: in vitro ADME; details: E. coli lysate with 0.5 mg/mL protein concentration; for remaining at 4 h, 0.15 μg/mL: E. coli BL21 A1 lysate (bacterial proteases), pH 7.4, read-out: percentage printed under half-life >240 min (peptide remaining)
Protocol: as §1, §2, §3

E. coli 045-849 SENTRY = test system: E. coli 045-849 SENTRY
Protocol: (§5) The minimum inhibitory concentrations (MIC) of the antimicrobial peptides and peptide derivatives were determined in microdilution assays. These used a continuous peptide dilution in sterile flat-bottomed 96-well microtiter plates (polystyrene, Greiner Bio-One GmbH, Frickenhausen, Germany) and a total volume of 100 μL per well. The aqueous peptide or peptidomimetic solutions were diluted with 1% TSB water, to obtain a final concentration of 256 μg/mL. 50 μL of the peptide or peptidomimetic solution was pipetted into the first well of each series and stirred. From this solution, 50 μL was transferred to the second well, stirred and again 50 μL was transferred to the next well, and so on. A double dilution series is obtained, beginning at 256 μg/mL in the first well to 125 ng/mL in the twelfth well. The bacteria, e.g. E. coli BL21 A1, were cultured overnight at 37° C. in nutrient broth (NB, Carl Roth GmbH+Co. KG, Karlsruhe, Germany). 50 μL of a 5×10^6 bacteria/mL suspension in 1% TSB was added to each well of the microtiter plate and thus a final concentration of the peptides or peptidomimetics from 128 μg/mL (well 1) to 62.5 ng/mL (well 12) was established in each series. The plates were incubated at 37° C. for 20 h and then the absorption was measured at 595 nm with a TECAN microtiter plate spectrophotometer (Tecan Trading AG, Mannedorf, Switzerland). The MIC values of all peptides and peptidomimetics were determined in triplicate. Sterile water was used as negative control.
(§6) The tests were in this case carried out in Mueller-Hinton medium (¼ concentrated), which is equivalent to 1% TSB.

E. coli ATCC BAA-457 = details: ¼ Muller-Hinton medium
Protocol: as §5, §6

E. coli D31 J. Wilson = details: ¼ Muller-Hinton medium
Protocol: as §5, §6

K. pneumoniae 012-3131 = test system: K. pneumoniae 012-3131
Protocol: as §5, §6

K. pneumoniae ATCC 27799 = details: ATCC 27799
Protocol: as §5, §6

[8] = test system: K. pneumoniae K6 ATCC 700603; details: ATCC 700603
Protocol: as §5, §6

[9] = test system: P. aeruginosa 10 J. Wilson
Protocol: as §5, §6

P. aeruginosa 39324 = test system: P. aeruginosa 39324
Protocol: as §5, §6

P. mirabilis ATCC 7002 = details: ¼ Muller-Hinton medium
Protocol: as §5, §6

P. vulgaris ATCC 6896 = details: ¼ Muller-Hinton medium
Protocol: as §5, §6

S. saprophyticus 15305 = details: 15305
Protocol: as §5, §6

[10] = test system: S. typhimurium ATCC 14028
Protocol: as §5, §6

[11] = test system: S. typhimurium ATCC 700408
Protocol: as §5, §6

[12] = test system: S. typhimurium s5 (J. Weiser); details: ¼ Muller-Hinton medium
Protocol: as §5, §6
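For Half-life in 25% mouse serum in this document: intact peptide left at successive time points measured by reversed-phase HPLC with an acetonitrile gradient in the supernatant after precipitation of serum proteins.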

Molecule	Half-life in E. coli lysate [1] [h]	MIC E. coli DSM 10233 [2] [µg/mL]	MIC K. pneumoniae DSM 681 [3] [µg/mL]	MIC P. aeruginosa DSM 3227 [4] [µg/mL]	half-life [5] [h]	MIC E. coli BL21 A1 (E. coli BL21 A1) [µg/mL]	MIC M. luteus 10240 (M. luteus 10240) [µg/mL]	remaining at 4 h, 0.15 μg/mL [7] [%]	MIC E. coli SEQ 102ATCC # BAA-4 57 (E. coli ATCC BAA-457) [µg/mL]	MIC E. coli D31 J. Wilson (E. coli D31 J. Wilson) [µg/mL]	MIC K. pneumoniae 012-3131 (K. pneumoniae 012-3131) [µg/mL]	MIC K. pneumoniae ATCC 27799 (K. pneumoniae ATCC 27799) [µg/mL]	MIC K. pneumoniae K6 ATCC 700603 [8] [µg/mL]	MIC P. aeruginosa 10 J. Wilson [9] [µg/mL]	MIC P. mirabilis ATCC 7002 (P. mirabilis ATCC 7002)	MIC P. vulgaris ATCC 6896 (P. vulgaris ATCC 6896)	MIC S. typhimurium ATCC 14028 [10] [µg/mL]	MIC S. typhimurium ATCC 700408 [11] [µg/mL]	MIC S. typhimurium s5 (J. Weiser) [12] [µg/mL]	also measured
CC[C@H](C)[C@H](NC(=O)[C@H](CCCN)NC(=O)[C@H](CCCNC(=N)N)NC(=O)[C@@H]1CCCN1C(=O)[C@@H]1CCCN1C(=O)[C@H](CCCNC(=N)N)NC(=O)[C@@H]1CCCN1C(=O)[C@H](CCCNC(=N)N)NC(=O)[C@@H]1CCCN1C(=O)[C@H](CC(C)C)NC(=O)[C@H](Cc1ccc(O)cc1)NC(=O)[C@@H]1CCCN1C(=O)[C@@H]1CCCN1C(=O)[C@H](CCCCN)NC(=O)[C@H](CC(=O)O)NC(=O)[C@@H](N)C(C)C)C(=O)N[C@@H](Cc1ccc(O)cc1)C(=O)N[C@@H](CC(N)=O)C(=O)N[C@@H](CCCN)C(N)=O [compound 72] (H-VDKPPYLPRPRPPR[Orn]IYN[Orn]-NH2)	2.08	32 (≈ 13.9 µM)	4 (≈ 1.73 µM)	>32	2.92															Half-life in 25% mouse serum [6]: >6 h
CC[C@H](C)[C@H](NC(=O)[C@H](CCCN)NC(=O)[C@H](CCCNC(=N)N)NC(=O)[C@@H]1C[C@@H](O)CN1C(=O)[C@@H]1CCCN1C(=O)[C@H](CCCNC(=N)N)NC(=O)[C@@H]1CCCN1C(=O)[C@H](CCCNC(=N)N)NC(=O)[C@@H]1CCCN1C(=O)[C@H](CC(C)C)NC(=O)[C@H](Cc1ccc(O)cc1)NC(=O)[C@@H]1CCCN1C(=O)[C@@H]1CCCN1C(=O)[C@H](CCCCN)NC(=O)[C@H](CC(=O)O)NC(=O)[C@@H](N)C(C)C)C(=O)N[C@@H](Cc1ccc(O)cc1)C(=O)N[C@@H](CC(N)=O)C(=O)N[C@@H](CCCN)C(N)=O [compound 107] (H-VDKPPYLPRPRP[Hyp]R[Orn]IYN[Orn]-NH2)		16 (≈ 6.89 µM)	4 (≈ 1.72 µM)	>32		4 (≈ 1.72 µM)	4 (≈ 1.72 µM)													
CC[C@H](C)[C@H](NC(=O)[C@@H]1C[C@@H](O)CN1C(=O)[C@H](CCCNC(=N)N)NC(=O)[C@@H]1C[C@@H](O)CN1C(=O)[C@@H]1CCCN1C(=O)[C@H](CCCNC(=N)N)NC(=O)[C@@H]1CCCN1C(=O)[C@H](CCCNC(=N)N)NC(=O)[C@@H]1CCCN1C(=O)[C@H](CC(C)C)NC(=O)[C@H](Cc1ccc(O)cc1)NC(=O)[C@@H]1CCCN1C(=O)[C@@H]1CCCN1C(=O)[C@H](CCCCN)NC(=O)[C@H](CC(=O)O)NC(=O)[C@@H](N)C(C)C)C(=O)N[C@@H](Cc1ccc(O)cc1)C(=O)N[C@@H](CC(N)=O)C(=O)N[C@@H](CCCN)C(N)=O [compound 108] (H-VDKPPYLPRPRP[Hyp]R[Hyp]IYN[Orn]-NH2)		1 (≈ 0.431 µM)	2 (≈ 0.862 µM)	16 to 32	2.5	2 (≈ 0.862 µM)	32 (≈ 13.8 µM)	60												half-life ([7]; 37° C.): > 4 h
CC(C)C[C@H](NC(=O)[C@H](Cc1ccc(O)cc1)NC(=O)[C@@H]1CCCN1C(=O)[C@@H]1CCCN1C(=O)[C@H](CCCCN)NC(=O)[C@H](CC(=O)O)NC(=O)[C@@H](N)C(C)C)C(=O)N1CCC[C@H]1C(=O)N[C@@H](CCCNC(=N)N)C(=O)N1CCC[C@H]1C(=O)N[C@@H](CCCNC(=N)N)C(=O)N1CCC[C@H]1C(=O)N1CCC[C@H]1C(=O)N[C@@H](CCCNC(=N)N)C(=O)N[C@@H](CCCN)C(=O)N[C@H](C(=O)N[C@@H](Cc1ccc(O)cc1)C(=O)N[C@@H](CC(N)=O)C(=O)N[C@@H](CCCN)C(N)=O)C(C)(C)C [compound 109] (H-VDKPPYLPRPRPPR[Orn][Tle]YN[Orn]-NH2)	>4				2.17	4 (≈ 1.73 µM)	4 (≈ 1.73 µM)	90												
H-GKPRPYSPRPTSHPRPIRV-OH [compound 89]						4			2	4	4	8	8	16	>	>	8	0.5	1	MIC E. coli 045-849 SENTRY (E. coli 045-849 SENTRY; ¼ Muller-Hinton medium): 2 µg/mL; MIC P. aeruginosa 39324 (P. aeruginosa 39324): 32 µg/mL; MIC S. saprophyticus 15305 (S. saprophyticus 15305): >64 µg/mL
H-VDKPPYLPRPRPPRRIYNNR-NH2 [compound 15]						8	8		32	16	16	64	32	16	>	>	4	0.5	8	MIC E. coli 045-849 SENTRY (E. coli 045-849 SENTRY; 045-849 SENTRY): 4 µg/mL
